Measured values taken from publication PMC4145321, “Synthesis and Biological Evaluation of Novel 3-Alkylpyridine Marine Alkaloid Analogs with Promising Anticancer Activity” (Marine Drugs, 2014).
Entries after “also recorded” stand apart in the source; their conditions may differ.

Tests used:
[1] = tested on: RKO-AS-45-1 cells (colon carcinoma); assay: MTT cytotoxicity assay, RKO-AS-45-1; assay type: cell-based, human; conditions: for IC50: Homo sapiens, RKOAS451, MTT, 48 h incubation, triplicate, average ± SD; for Selectivity Index (SI) RKO AS-45-1: ratio of IC50 WI-26VA4 and IC50 RKO-AS-45-1
Method: (§1) The cytotoxicity of the compounds was assessed with the human cell lines, HeLa (cervix adenocarcinoma ATCC# CCl-2), RKO-AS-45-1 (colon carcinoma ATCC# CRL-2579) and WI-26 VA4 (fibroblast ATCC# CCL-95.1) using the MTT (3-(4,5-dimethylthiazol-2-yl)-2,5-diphenyltetrazolium bromide) (Sigma, St. Louis, MO, USA) colorimetric method. Briefly, the cells were plated in 96-well plates (1 × 10^5 cells/well) and incubated for 24 h at 37 °C in a humidified atmosphere with 5% CO2. After 24 h, the wells were washed with culture medium (RPMI +10% inactivated fetal calf serum + 2 mM L-glutamine) and incubated with the compounds at various concentrations (0.05 to 500 μM). After 48 h of incubation, the plates were treated with MTT. The colorimetric measurement was performed at 550 nm using the microplate reader, Spectramax M5e (Molecular Devices, Sunnyvale, CA, USA). Cytotoxicity was scored as the percent reduction in absorbance versus untreated control cultures. All experiments were performed in triplicate. The results are expressed as the mean of the IC50 (the lethal drug concentration that reduced cell viability by 50%). The IC50 values were calculated using OriginPro 8.0 (OriginLab Corporation, Northampton, MA, USA) software. A selectivity index (SI), corresponding to the ratio between the cytotoxic activities of each compound against the HeLa and RKO-AS-45-1 cell lines and the cytotoxicity against WI-26 VA4, was calculated as follows: […]

[2] = tested on: HeLa cells (cervix adenocarcinoma); assay: MTT cytotoxicity assay, HeLa; assay type: cell-based, human; conditions: for IC50: Homo sapiens, HeLa, MTT, 48 h incubation, triplicate, average ± SD; for Selectivity Index (SI) HeLa: ratio of IC50 WI-26VA4 and IC50 HeLa
Method: as §1

[3] = tested on: RKO-AS-45-1 cells; assay: Cytokinesis-block micronucleus assay; assay type: cell-based, human; conditions: 3 h treatment
Method: To assess the potential of the synthetic alkaloids to induce DNA damage (chromosomal mutations) in vitro, the cytokinesis-block micronucleus assay was performed in the RKO-AS-45-1 cell line. The procedures were developed as described by Fenech, with adaptations. Briefly, the cells were seeded in 24-well plates (2.5 × 10^5 cells/well) and maintained at 37 °C in a humid atmosphere with 5% CO2. After 24 h, the cells were washed twice with PBS, and the treatments were performed in culture media without serum for three hours. Each treatment was performed in triplicate. The negative control group was treated with PBS, and a positive control group was established with the treatment of the cells with methyl methanesulfonate (MMS—400 μM).
After completing treatments with three concentrations lower than the IC50 of Compounds 4c (4.8, 9.6 and 14.3 μM) and 5c (5.9, 11.8, and 17.8 μM) diluted in culture media, the cells were washed twice with PBS, trypsinized and centrifuged for 5 min at 1200 rpm. The pellet was then resuspended in chilled hypotonic solution (1% sodium citrate) together with one drop of 1% formaldehyde and carefully homogenized with a Pasteur pipette. This cell suspension was centrifuged for 5 min at 1200 rpm and resuspended in 5 mL of fixative, methanol/acetic acid (3:1 v/v). Next, the tubes were centrifuged for 5 min, and the supernatant was discarded; the cell suspension was spread onto slides previously cleaned and covered with a film of chilled distilled water.
At the moment of cytogenetic analysis, the slides were stained with DAPI (4′,6-diamidino-2-phenylindole) diluted in phosphate buffer (0.06 M Na2HPO4 and 0.06 M KH2PO4, pH 6.8) for 2 min, washed with distilled water and analyzed under a fluorescent microscope (Zeiss, Axioscope) with an excitation filter of 365 nm and a barrier filter of 445/450 nm. Two thousands cells with a well-preserved cytoplasm were analyzed for each treatment in a blind test. Cells containing 1–3 micronuclei were scored. The criterion for the identification of MNs was according to a previous report. […]

[4] = tested on: RKO-AS-45-1 cells; assay: Frequency of binucleation (mitotic index); assay type: cell-based, human; conditions: 300 cells counted
Method: The influence of the synthetic alkaloids on cell division was assessed by calculating the frequency of binucleation in RKO-AS-45-1 cells. The same slides prepared for the micronucleus assay were used, and 300 cells with a well-preserved cytoplasm were counted using fluorescence microscopy, as described above. The frequency of binucleated cells was calculated as the proportion (percentage) of cells undergoing complete cell division after exposure to digoxin and controls.

[5] = tested on: RKO-AS-45-1 cells; assay: TUNEL apoptosis assay, RKO-AS-45-1; assay type: cell-based, human; conditions: 48 h; 4c at 5.1 μM, 5c at 19.1 μM
Method: (§2) Apoptotic cell death was measured using the APO-BrdU TUNEL assay kit (Invitrogen, Carlsbad, CA, USA). Briefly, the effect of Compounds 4c and 5c and etoposide on DNA fragmentation was determined using Hela and RKO-AS-45-1 cells. The cells were incubated with the compounds for 48 h, as described above, and fixed using a solution of ice-cold 70% ethanol. The cells were then counterstained with 5-bromo-2′-deoxyuridine 5′-triphosphate (BrdUTP) in the presence of terminal deoxynucleotidyl transferase (TdT) and stained with an anti-BrdU monoclonal antibody-PRB-1 Alexa Fluor 488 conjugate, as previously described. The loaded cells were visualized by fluorescence microscopy using a Zeiss Axiovert 200 (Carl Zeiss, Oberkochen, Germany).

[6] = tested on: HeLa cells; assay: TUNEL apoptosis assay, HeLa; assay type: cell-based, human; conditions: 48 h; 4c at 19.1 μM, 5c at 8.5 μM
Method: as §2

[7] = tested on: WI-26VA4 cells (lung fibroblast, non-cancerous); assay: MTT cytotoxicity assay, WI-26VA4; assay type: cell-based; conditions: Homo sapiens, WI26VA4, 48 h incubation, triplicate, average ± SD
Method: The cytotoxicity of the compounds was assessed with the human cell lines, HeLa (cervix adenocarcinoma ATCC# CCl-2), RKO-AS-45-1 (colon carcinoma ATCC# CRL-2579) and WI-26 VA4 (fibroblast ATCC# CCL-95.1) using the MTT (3-(4,5-dimethylthiazol-2-yl)-2,5-diphenyltetrazolium bromide) (Sigma, St. Louis, MO, USA) colorimetric method. Briefly, the cells were plated in 96-well plates (1 × 10^5 cells/well) and incubated for 24 h at 37 °C in a humidified atmosphere with 5% CO2. After 24 h, the wells were washed with culture medium (RPMI +10% inactivated fetal calf serum + 2 mM L-glutamine) and incubated with the compounds at various concentrations (0.05 to 500 μM). After 48 h of incubation, the plates were treated with MTT. The colorimetric measurement was performed at 550 nm using the microplate reader, Spectramax M5e (Molecular Devices, Sunnyvale, CA, USA). Cytotoxicity was scored as the percent reduction in absorbance versus untreated control cultures. All experiments were performed in triplicate. […] The IC50 values were calculated using OriginPro 8.0 (OriginLab Corporation, Northampton, MA, USA) software. A selectivity index (SI), corresponding to the ratio between the cytotoxic activities of each compound against the HeLa and RKO-AS-45-1 cell lines and the cytotoxicity against WI-26 VA4, was calculated as follows: SI = […].

[8] = tested on: actin cytoskeleton of RKO-AS-45-1 cells; assay: Actin polymerization by fluorescence microscopy; assay type: cell-based, human; conditions: 19.1 μM, 24 h, phalloidin Alexa Fluor 488
Method: The control with non-treated cells was included in parallel. After 24 h, the cells were rinsed in phosphate-buffered saline (PBS) for 3 min, fixed in paraformaldehyde (#15,812-7, Sigma) at 4% in PBS for 1 h and permeabilized with 0.1% Triton X-100 (#17-1315-01, Plusone, GE Healthcare, Fairfield, CA, USA) in PBS for 10 min. The RKO-AS-45-1 cells were labeled with Phalloidin Alexa Fluor® 488 (#A12379, Molecular Probes, Eugene, OR, USA), and the nuclei were counterstained with 4,6-diaminidino-2-phenylindole (DAPI; Molecular Probes, #D1306) according to the manufacturer’s instructions. Image acquisition was performed using an AxioVert 200 microscope (Carl Zeiss, Oberkochen, Germany).

In the case of `c1cncc(CCCOCCCCCCOC2CCCCO2)c1` (stereo not shown) [Compound 4a, 1-[3-(pyridin-3-yl)propoxy]-6-(oxan-2-yloxy)hexane], the IC50 [1] is reported as > 300 µM and the IC50 [2] is reported as > 300 µM.

In the case of `c1cncc(CCCOCCCCCCCCOC2CCCCO2)c1` (stereo not shown) [Compound 4b, 1-[3-(pyridin-3-yl)propoxy]-8-(oxan-2-yloxy)octane], the IC50 [1] is reported as 23.7 ± 1.7 µM, the “Selectivity Index (SI) RKO AS-45-1” value [1] is reported as 1.59 and the IC50 [2] is reported as 8.1 ± 2.7 µM. The “Selectivity Index (SI) HeLa” value [2] was 4.66.

For `c1cncc(CCCOCCCCCCCCCCOC2CCCCO2)c1` (stereo not shown) [Compound 4c, 1-[3-(pyridin-3-yl)propoxy]-10-(oxan-2-yloxy)decane], the IC50 [1] was 5.1 ± 1.1 µM, the “Selectivity Index (SI) RKO AS-45-1” value [1] was 1.25 and the IC50 [2] was 4 ± 0.8 µM. For the same molecule, the “Selectivity Index (SI) HeLa” value [2] was 1.60, the “Micronucleus frequency vs control” value ([3]; 2.5 and 4.0 μM (two highest concentrations), 2000 binucleated cells, p < 0.05) was “significantly higher than that detected in the control; also recorded: statistically higher than that identified in the control group” and the “Micronucleus frequency vs control” value ([3]; lower concentrations evaluated) was “did not induce significant alterations in the MN frequency”. For the same molecule, the “Frequency of binucleation vs negative control” value ([4]; two highest concentrations assessed) was “reduced the binucleation frequency”, the “Apoptosis induction (TUNEL)” value [5] was “promoted apoptosis” and the “Apoptosis induction (TUNEL)” value [6] was “promoted apoptosis”.

With `c1cncc(CCCOCCCCCCCCCCCCOC2CCCCO2)c1` (stereo not shown) [Compound 4d, 1-[3-(pyridin-3-yl)propoxy]-12-(oxan-2-yloxy)dodecane] the IC50 [1] was 3.2 ± 1.7 µM, the “Selectivity Index (SI) RKO AS-45-1” value [1] was 3.53 and the IC50 [2] was 9.4 ± 0.7 µM. The “Selectivity Index (SI) HeLa” value [2] was 1.20.

`OCCCCCCOCCCc1cccnc1` [Compound 5a, 6-[3-(pyridin-3-yl)propoxy]hexan-1-ol] was tested, and the IC50 [1] was > 400 µM and the IC50 [2] was > 400 µM.

`OCCCCCCCCOCCCc1cccnc1` [Compound 5b, 8-[3-(pyridin-3-yl)propoxy]octan-1-ol] was tested, and the IC50 [1] was > 300 µM, the IC50 [2] was 192 ± 10.1 µM and the “Selectivity Index (SI) HeLa” value [2] was 0.87. The IC50 [7] was 167 ± 10.5 µM.

`OCCCCCCCCCCOCCCc1cccnc1` [Compound 5c, 10-[3-(pyridin-3-yl)propoxy]decan-1-ol] was tested, and the IC50 [1] was 19.1 ± 4.4 µM, the “Selectivity Index (SI) RKO AS-45-1” value [1] was 5.18 and the IC50 [2] was 8.5 ± 2.4 µM. The “Selectivity Index (SI) HeLa” value [2] was 11.65, the “Micronucleus frequency vs control” value ([3]; 17.8 μM (highest concentration), 2000 binucleated cells, p < 0.05) was “significantly higher than that found in the control; also recorded: statistically higher than that identified in the control group” and the “Frequency of binucleation / proliferation rate vs control” value ([4]; highest concentration assessed, p < 0.05) was “reduced the proliferation rate; also recorded: induced a reduction in the proliferation rate”. The “Apoptosis induction (TUNEL)” value [5] was “promoted apoptosis”, the “Apoptosis induction (TUNEL)” value [6] was “promoted apoptosis” and the “Effect on actin cytoskeleton / actin polymerization” value [8] was “actin polymerization is altered; also recorded: accentuated alteration of the cellular actin network”.

With `OCCCCCCCCCCCCOCCCc1cccnc1` [Compound 5d, 12-[3-(pyridin-3-yl)propoxy]dodecan-1-ol] the IC50 [1] was 132 ± 16.8 µM, the “Selectivity Index (SI) RKO AS-45-1” value [1] was 0.25 and the IC50 [2] was 8.8 ± 1.9 µM. For the same molecule, the “Selectivity Index (SI) HeLa” value [2] was 3.87.

Molecule `COc1cc([C@@H]2c3cc4c(cc3[C@@H](O[C@@H]3O[C@@H]5CO[C@@H](C)O[C@H]5[C@H](O)[C@H]3O)[C@H]3COC(=O)[C@H]23)OCO4)cc(OC)c1O` [Etoposide, reference compound] has an IC50 [1] of 1.4 ± 0.6 µM and an IC50 [2] of 2.7 ± 0.4 µM.
